Results reported in patent US20210139507A1, “FUSED PYRIDINES WHICH ACT AS INHIBITORS OF H PGDS” (GlaxoSmithKline Intellectual Property Development Limited, priority 2017, published 2021).

molecular target: T1, hematopoietic prostaglandin D synthase (H-PGDS) (Homo sapiens, UniProt O60760); test: H-PGDS RapidFire High Throughput Mass Spectrometry Assay; format: biochemical; details: conversion of PGH2 to PGD2 by human H-PGDS, 10 nM enzyme; mean pIC50; read-out: Potency Range (mean pIC50) (converted)
T1 construct: Full length human H-PGDS cDNA (Invitrogen Ultimate ORF IOH13026) was amplified by PCR; 6-His (N); TEV protease cleavage site (N); made in house; host or cells: E. coli BL21 (DE3*), vector pET22b+
Protocol: The H-PGDS RapidFire™ mass spectrometric assay monitors conversion of prostaglandin H2 (PGH2) to prostaglandin D2 (PGD2) by hematopoietic prostaglandin D synthase (H-PGDS). In the assay format described here, the substrate (PGH2) is formed in situ by the action of cyclooxygenase-2 on arachidonic acid. This first step is set up to be fast, and generates a burst of PGH2 at ˜10 μM. The PGH2 is then further converted to PGD2 by the H-PGDS enzyme. […] Plates are then read on the RapidFire™ high throughput solid phase extraction system (Agilent) which incorporates a solid phase extraction step coupled to a triple quadrupole mass spectrometer (AB SCIEX). Relative levels of PGD2 and PGF2α, which acts as a surrogate for substrate, are measured and a percent conversion calculated. Inhibitors are characterized as compounds which lower the conversion of PGH2 to PGD2.
Full length human H-PGDS cDNA (Invitrogen Ultimate ORF IOH13026) was amplified by PCR with the addition of a 5′ 6-His tag and TEV protease cleavage site. The PCR product was digested with NdeI and XhoI and ligated into pET22b+ (Merck Novagen®). Expression was carried out in E. coli strain BL21 (DE3*) using auto-induction Overnight Express™ Instant TB medium (Merck Novagen®) supplemented with 1% glycerol. The culture was first grown at 37° C. and the temperature was reduced to 25° C. when OD600 reached 2.0. Cells were harvested by centrifugation after a further 18 hours. 10 g of E. coli cell pellet was suspended to a total volume of 80 mL in lysis buffer (20 mM Tris-Cl pH 7.5, 300 mM NaCl, 20 mM imidazole, 5 mM β-mercaptoethanol, 10% glycerol). 1 mg/mL protease inhibitors (Protease Inhibitor Cocktail Set III, Merck Calbiochem®) and 1 mg/mL lysozyme were added to the cell suspension. The suspension was then sonicated for 5 min (Ultrasonic Processor VCX 750, Cole-Parmer Instrument Co.) with a micro probe (50% amplitude, 10 sec on/off) and then centrifuged at 100,000 g for 90 minutes (at 4° C.). The supernatant was loaded onto a Ni-NTA HiTrap column (5 mL, GE Healthcare, pre-equilibrated in lysis buffer). The column was washed with 10 column volumes of lysis buffer and eluted with lysis buffer containing 500 mM imidazole. The pooled protein peak fractions were concentrated using a 10 kDa centrifugal filter at 3500 g and 4° C. (Amicon Ultra-15 centrifugal filter unit with Ultracel-10 membrane from Millipore). Further purification of the concentrated protein was carried out using gel filtration chromatography on a HiLoad 26/600 Superdex75 preparative grade column (GE Healthcare Life Sciences) using 50 mM Tris pH 7.5, 50 mM NaCl, 1 mM dithiothreitol, 1 mM MgCl2. Fractions containing the protein were pooled, concentrated as described above, and stored at −80° C.
The full length human COX-2 gene (accession number L15326) was amplified by PCR to generate an EcoRI-Hindi 11 fragment containing an in-frame FLAG tag. This was subcloned into pFastBac 1 (Invitrogen). The COX-2 FLAG plasmid was recombined into the baculovirus genome according to the BAC-to-BAC protocol described by Invitrogen. Transfection into Spodoptera frugiperda (Sf9) insect cells was performed using Cellfectin (Invitrogen), according to the manufacturer's protocol. Super Sf9 cells were cultured in EX420 media (SAFC Biosciences) to a density of approximately 1.5×10^6 cells/mL within a wave bioreactor. Recombinant virus was added at a Multiplicity of Infection (MOI) of 5 and the culture was allowed to continue for 3 days. Cells were harvested using a continuous feed centrifuge run at 2500 g at a rate of approximately 2 L/min with cooling. The resultant cell slurry was re-centrifuged in pots (2500 g, 20 min, 4° C.) and the cell paste was stored at −80° C. 342 g of cell paste was re-suspended to a final volume of 1600 mL in a buffer of 20 mM Tris-Cl pH 7.4, 150 mM NaCl, 0.1 mM EDTA, 1.3% w/v n-octyl-β-D-glucopyranoside containing 20 Complete EDTA-free Protease Inhibitor Cocktail tablets (Roche Applied Science). […]

T1 sequence (O60760 whole entry): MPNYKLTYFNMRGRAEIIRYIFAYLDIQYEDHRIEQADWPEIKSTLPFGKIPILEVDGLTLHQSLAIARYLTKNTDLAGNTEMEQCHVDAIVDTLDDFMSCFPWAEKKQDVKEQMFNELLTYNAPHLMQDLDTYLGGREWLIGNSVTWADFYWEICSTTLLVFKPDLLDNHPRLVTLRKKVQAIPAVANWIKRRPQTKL

Compound	IC50 [nM]
CC(C)(O)[C@H]1CC[C@H](NC(=O)c2cnc3nc(C4CC4)sc3c2)CC1 [Example 8]	10 to 79.4
CC(C)(O)C1CC2(CC(NC(=O)c3cnc4nc(C5CC5)sc4c3)C2)C1 (racemic) [Example 15, (Racemic)-2-cyclopropyl-N-(6-(2-hydroxypropan-2-yl)spiro[3.3]heptan-2-yl)thiazolo[4,5-b]pyridine-6-carboxamide]	10 to 79.4
C[C@]1(O)C[C@@H](NC(=O)c2cnc3cc(Br)sc3c2)C1 [Example 3]	1260 to 10000
CC(C)(O)[C@H]1CC[C@H](NC(=O)c2cnc3nc(N(C4CC4)C4CC4)sc3c2)CC1 [Example 36, 2-(Dicyclopropylamino)-N-(trans-4-(2-hydroxypropan-2-yl)cyclohexyl)thiazolo[4,5-b]pyridine-6-carboxamide]	1260 to 10000
O=C(N[C@H]1CC[C@H](C(O)C2CC2)CC1)c1cnc2nc(C3CC3)sc2c1 (relative stereo) [Example 26, 2-Cyclopropyl-N-(trans-4-(cyclopropyl(hydroxy)methyl)cyclohexyl)thiazolo[4,5-b]pyridine-6-carboxamide]	10 to 79.4
CC(C)(O)C12CC(NC(=O)c3cnc4cc(C5CC5)sc4c3)(C1)C2 [Example 12, 2-Cyclopropyl-N-(3-(2-hydroxypropan-2-yl)bicyclo[1.1.1]pentan-1-yl)thieno[3,2-b]pyridine-6-carboxamide]	10 to 79.4
C[C@]1(O)CC[C@H](NC(=O)c2cnc3nc(C4CC4)sc3c2)CC1 [Example 17, 2-Cyclopropyl-N-((trans)-4-hydroxy-4-methylcyclohexyl)thiazolo[4,5-b]pyridine-6-carboxamide]	1260 to 10000
CC(C)(O)C12CC(NC(=O)c3cnc4cc(Br)sc4c3)(C1)C2 [Example 11, 2-Bromo-N-(3-(2-hydroxypropan-2-yl)bicyclo[1.1.1]pentan-1-yl)thieno[3,2-b]pyridine-6-carboxamide]	100 to 1000
CC(C)N(C)c1nc2ncc(C(=O)N[C@H]3CC[C@H](C(C)(C)O)CC3)cc2s1 [Example 6]	10 to 79.4
CC(C)(O)[C@H]1CC2(C[C@H](NC(=O)c3cnc4nc(C5CC5)sc4c3)C2)C1 (single isomer, unassigned) [Example 42]	10 to 79.4
CN(c1nc2ncc(C(=O)N[C@H]3CC[C@H](C(C)(C)O)CC3)cc2s1)C1CC1 [Example 35, 2-(Cyclopropyl(methyl)amino)-N-(trans-4-(2-hydroxypropan-2-yl)cyclohexyl)thiazolo[4,5-b]pyridine-6-carboxamide]	100 to 1000
CC(C)(O)[C@H]1CC[C@H](NC(=O)c2cnc3nc(N4CCCC4)sc3c2)CC1 [Example 33, N-(trans-4-(2-Hydroxypropan-2-yl)cyclohexyl)-2-(pyrrolidin-1-yl)thiazolo[4,5-b]pyridine-6-carboxamide]	100 to 1000
O=C(N[C@H]1CC[C@H](OCCO)CC1)c1cnc2nc(C3CC3)sc2c1 [Example 18, 2-Cyclopropyl-N-((trans)-4-(2-hydroxyethoxy)cyclohexyl)thiazolo[4,5-b]pyridine-6-carboxamide]	100 to 1000
COc1nc2ncc(C(=O)N[C@H]3CC[C@H](C(C)(C)O)CC3)cc2s1 [Example 40, N-((trans)-4-(2-Hydroxypropan-2-yl)cyclohexyl)-2-methoxythiazolo[4,5-b]pyridine-6-carboxamide]	100 to 1000

test system: male mdx mice; test: In vivo assay for functional response to muscle injury (eccentric contraction-induced muscle fatigue); set-up: species or system mouse; details: 7 months of age, PO 0.1, 1 and 10 mg/kg QD beginning 10 min prior to challenge, versus vehicle, FIG. 1
From the text: Under anesthesia, the right hind limb of a mouse is restrained at the knee and the foot attached to a motorized footplate/force transducer. Needle electrodes are inserted into the upper limb, either side of the sciatic nerve and a current sufficient to elicit a maximal muscle contraction is applied. Muscle tension is produced by moving the footplate to lengthen the plantarflexor muscles while the limb is under maximal stimulation. This is repeated 60 times to fatigue the muscles of the lower limb. Anesthesia, limb immobilization and limb stimulation are then repeated at regular intervals to measure maximal isometric force in the recovering limb. 7 to 9 animals are tested for each test condition.

Compound	kinetics of recovery of maximal isometric torque after eccentric contraction challenge
CC(C)(O)[C@H]1CC[C@H](NC(=O)c2cnc3nc(C4CC4)sc3c2)CC1 [Example 8]	exhibited an acceleration in the kinetics of recovery
